Reference: PubChem BioAssay AID1845207 (Molecular Pharmacology Branch, DTP, NCI, 2023)

System: NCI-H1876 tumor spheroid viability
Experiment: Anticancer human tumor NCI-H1876 cell line growth inhibition;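 note: spheroids exposed to compounds for seven days before the viability read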;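 for viability, T/C: percent of DMSO vehicle control viability so 100% = vehicle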
Details: spheroids with HUVEC and MSC; for IC50: curve of first compound; for viability, T/C: stronger effect = lower value
In short: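 Single agents and combinations were tested on spheroids built from tumor cells plus HUVEC and hMSC, at half-log dilutions starting at or near clinical Cmax, else 10 microM; final DMSO 0.25% (v/v).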

## CNCc1ccc(-c2cc(-c3nc(-c4ccc(S(=O)(=O)C(C)C)cc4)cnc3N)on2)cc1 + CC[C@@]1(O)C(=O)OCc2c1cc1n(c2=O)Cc2cc3c(CN(C)C)c(O)ccc3nc2-1
Second compound 0.003 µM
  IC50: 56.8 nM
Second compound 0.00949 µM
  IC50: < 9.49 nM
Second compound 0.03 µM
  IC50: < 9.49 nM
Second compound 0.0949 µM
  IC50: < 9.49 nM
Second compound 0.3 µM
  IC50: < 9.49 nM
Second compound 0.003 µM, first compound 0.00949 µM
  viability, T/C: 68%
Second compound 0.003 µM, first compound 0.03 µM
  viability, T/C: 57.6%
Second compound 0.003 µM, first compound 0.0949 µM
  viability, T/C: 34%
Second compound 0.003 µM, first compound 0.3 µM
  viability, T/C: 46.9%
Second compound 0.003 µM, first compound 0.949 µM
  viability, T/C: 5.62%
Second compound 0.003 µM, first compound 3 µM
  viability, T/C: 0.13%
Second compound 0.00949 µM, first compound 0.00949 µM
  viability, T/C: 46.3%
Second compound 0.00949 µM, first compound 0.03 µM
  viability, T/C: 34.2%
Second compound 0.00949 µM, first compound 0.0949 µM
  viability, T/C: 26.3%
Second compound 0.00949 µM, first compound 0.3 µM
  viability, T/C: 18%
Second compound 0.00949 µM, first compound 0.949 µM
  viability, T/C: 5.92%
Second compound 0.00949 µM, first compound 3 µM
  viability, T/C: 0.13%
Second compound 0.03 µM, first compound 0.00949 µM
  viability, T/C: 13.6%
Second compound 0.03 µM, first compound 0.03 µM
  viability, T/C: 14.5%
Second compound 0.03 µM, first compound 0.0949 µM
  viability, T/C: 16.9%
Second compound 0.03 µM, first compound 0.3 µM
  viability, T/C: 19%
Second compound 0.03 µM, first compound 0.949 µM
  viability, T/C: 5.1%
Second compound 0.03 µM, first compound 3 µM
  viability, T/C: 0.13%
Second compound 0.0949 µM, first compound 0.00949 µM
  viability, T/C: 8.73%
Second compound 0.0949 µM, first compound 0.03 µM
  viability, T/C: 8.03%
Second compound 0.0949 µM, first compound 0.0949 µM
  viability, T/C: 10.2%
Second compound 0.0949 µM, first compound 0.3 µM
  viability, T/C: 8.96%
Second compound 0.0949 µM, first compound 0.949 µM
  viability, T/C: 3.31%
Second compound 0.0949 µM, first compound 3 µM
  viability, T/C: 0.13%
Second compound 0.3 µM, first compound 0.00949 µM
  viability, T/C: 3.51%
Second compound 0.3 µM, first compound 0.03 µM
  viability, T/C: 3.44%
Second compound 0.3 µM, first compound 0.0949 µM
  viability, T/C: 3.53%
Second compound 0.3 µM, first compound 0.3 µM
  viability, T/C: 3.41%
Second compound 0.3 µM, first compound 0.949 µM
  viability, T/C: 1.38%
Second compound 0.3 µM, first compound 3 µM
  viability, T/C: 0.19%

## CC(C)n1c(=O)n(C)c2cnc3cc(F)c(-c4ccc(OCCCN5CCCCC5)nc4)cc3c21 + COc1cc2c(cc1O)CCNC21CSC2c3c(OC(C)=O)c(C)c4c(c3C(COC1=O)N1C(O)C3Cc5cc(C)c(OC)c(O)c5C(C21)N3C)OCO4
Second compound 30 pM
  IC50: > 10000 nM
Second compound 94.9 pM
  IC50: > 10000 nM
Second compound 0.0003 µM
  IC50: < 31.6 nM
Second compound 0.000949 µM
  IC50: < 31.6 nM
Second compound 0.003 µM
  IC50: < 31.6 nM
Second compound 30 pM, first compound 0.0316 µM
  viability, T/C: 94%
Second compound 30 pM, first compound 0.1 µM
  viability, T/C: 93.1%
Second compound 30 pM, first compound 0.316 µM
  viability, T/C: 95%
Second compound 30 pM, first compound 1 µM
  viability, T/C: 95.5%
Second compound 30 pM, first compound 3.16 µM
  viability, T/C: 93.7%
Second compound 30 pM, first compound 10 µM
  viability, T/C: 86.7%
Second compound 94.9 pM, first compound 0.0316 µM
  viability, T/C: 66.3%
Second compound 94.9 pM, first compound 0.1 µM
  viability, T/C: 58.5%
Second compound 94.9 pM, first compound 0.316 µM
  viability, T/C: 49.3%
Second compound 94.9 pM, first compound 1 µM
  viability, T/C: 53.5%
Second compound 94.9 pM, first compound 3.16 µM
  viability, T/C: 55.2%
Second compound 94.9 pM, first compound 10 µM
  viability, T/C: 46.8%
Second compound 0.0003 µM, first compound 0.0316 µM
  viability, T/C: 10.7%
Second compound 0.0003 µM, first compound 0.1 µM
  viability, T/C: 9.04%
Second compound 0.0003 µM, first compound 0.316 µM
  viability, T/C: 11%
Second compound 0.0003 µM, first compound 1 µM
  viability, T/C: 9.85%
Second compound 0.0003 µM, first compound 3.16 µM
  viability, T/C: 12.3%
Second compound 0.0003 µM, first compound 10 µM
  viability, T/C: 9.65%
Second compound 0.000949 µM, first compound 0.0316 µM
  viability, T/C: 2.08%
Second compound 0.000949 µM, first compound 0.1 µM
  viability, T/C: 1.93%
Second compound 0.000949 µM, first compound 0.316 µM
  viability, T/C: 1.77%
Second compound 0.000949 µM, first compound 1 µM
  viability, T/C: 1.8%
Second compound 0.000949 µM, first compound 3.16 µM
  viability, T/C: 2.69%
Second compound 0.000949 µM, first compound 10 µM
  viability, T/C: 2.47%
Second compound 0.003 µM, first compound 0.0316 µM
  viability, T/C: 0.9%
Second compound 0.003 µM, first compound 0.1 µM
  viability, T/C: 0.67%
Second compound 0.003 µM, first compound 0.316 µM
  viability, T/C: 0.58%
Second compound 0.003 µM, first compound 1 µM
  viability, T/C: 0.77%
Second compound 0.003 µM, first compound 3.16 µM
  viability, T/C: 0.63%
Second compound 0.003 µM, first compound 10 µM
  viability, T/C: 1.09%
